According to patent publication US4870175A, “6-substituted alkoxy-2-oxo-1,2-dihydroquinoxaline derivatives” (Toyo Jozo Kabushiki Kaisha, priority 1987, dated 1989):
Where two headings read alike, the source gives them in different places.

How the values were obtained:
[1] = test system: cyclic AMP/phosphodiesterase; experiment: Inhibitory action of cyclic AMP/phosphodiesterase (crude enzyme fraction from sonicated rabbit platelets); assay type: biochemical; details: 40 min
Method: The pharmacological activity of the present compounds [1] is illustrated below. (1) Inhibitory action of cyclic AMP/phosphodiesterase:
A mixture of 2 mM MgCl2 /40 mM Tris-buffer (pH 7.5) 700 μl, enzyme solution (a crude enzyme fraction obtained from sonicated rabbit platelets) 100 μl, and a test sample solution (compound [1] dissolved in 50% aqueous methanol) 100 μl is incubated at 30° C. for 5 mins. 3', 5'-cyclic AMP 100 μl (50 μg) is added thereto and the mixture is further incubated for 40 mins. The reaction is stopped by heating 100° C. for 5 mins. The amount of 5'-AMP in the supernatant obtained by centrifugation at 3000 rpm for 5 mins. is measured using HPLC.
As shown in that table, the compound of the present invention has cyclic AMP/phosphodiesterase inhibitory activity at 1-10 μg/ml.

[2] = test system: rabbit platelet-rich plasma; experiment: Platelet aggregation inhibition (rabbit platelet-rich plasma, aggregometer); assay type: cell-based; details: Oryctolagus cuniculus, compound final concentration 10 μM, read-out: Inhibitory ratio
Method: (2) Platelet aggregation inhibition:
A rabbit platelet-rich plasma (5×10^5 /mm^3), to which was added 1/10 volume of a 3.8% sodium citrate solution, 216 μl, is incubated in an aggregometer at 37° C., 1000 rpm, for 3 mins. A test sample solution 12 μl (final concentration 10 μM) is added thereto and the mixture is further incubated for 3 mins., and collagen (aggregation agent) 2.5 μg/ml, ADP 2.5 μM, platelet activating factor (PAF) 0.05 μg/ml or 0.25 mM arachidonic acid (A.A.) 12 μl is added thereto as an aggregating agent, and the platelet aggregation activity is measured.

[3] = aggregating agent PAF 0.05 μg/ml
[4] = aggregating agent arachidonic acid (A.A.) 0.25 mM
[5] = aggregating agent collagen 2.5 μg/ml

SMILES | Inhibitory ratio ([1]; 1 μg/ml) | Inhibitory ratio ([1]; 10 μg/ml) | Inhibitory ratio ([1]; 100 μg/ml) | inhibition at 10 µM ([2]; aggregating agent ADP 2.5 μM) | inhibition at 10 µM [2, 3] | inhibition at 10 µM [2, 4] | inhibition at 10 µM [2, 5]
CN(C(=O)CCCOc1ccc2[nH]c(=O)cnc2c1)C1CCCCC1 [Compound 896] | 25.5% | 71.5% | 91.0% | 37.2% | 37.1% | 31.1% | 59.2%
O=c1cnc2cc(OCCCCc3nnnn3C3CCCCC3)ccc2[nH]1 [Compound 913, 6-[4-(1-cyclohexyl-tetrazole-5-yl)-butoxy]-2-oxo-1,2-dihydroquinoxaline] | 19.2% | 80.3% |  |  |  |  | 
CCOC(=O)CCCOc1ccc2[nH]c(=O)cnc2c1 [Compound 914, 6-(3-ethoxycarbonylpropoxy)-2-oxo-1,2-dihydroquinoxaline] | 18.1% | 34.3% | 54.4% |  |  |  | 
CCN(C(=O)CCCOc1ccc2[nH]c(=O)cnc2c1)C1CCCCC1 [Compound 915] | 37.2% | 77.7% | 85.1% | 41% | 36% | 30.4% | 63.2%
O=C(CCCOc1ccc2[nH]c(=O)cnc2c1)N(Cc1ccccc1)C1CCCCC1 [Compound 916] | 47.3% | 78.0% | 85.7% |  |  |  | 
O=C(CCCOc1ccc2[nH]c(=O)cnc2c1)N(CCO)C1CCCCC1 [Compound 917] | 16.6% | 59.3% | 87.7% | 36.9% | 36.7% | 32.6% | 57.4%
COc1ccccc1N1CCN(C(=O)CCCOc2ccc3[nH]c(=O)cnc3c2)CC1 [Compound 918] | 19.8% | 61.0% | 87.9% |  |  |  | 
CCOC(=O)CCCCOc1ccc2[nH]c(=O)cnc2c1 [Compound 919] | 23.9% | 65.2% | 92.4% |  |  |  | 
CN(C(=O)CCCCOc1ccc2[nH]c(=O)cnc2c1)C1CCCCC1 [Compound 920] | 42.9% | 81.7% | 75.1% | 49.3% | 26.9% | 30.2% | 52.5%
CCN(C(=O)CCCCOc1ccc2[nH]c(=O)cnc2c1)C1CCCCC1 [Compound 921] | 49.8% | 84.5% | 93.0% | 62.6% | 35.3% | 44.7% | 81%
O=C(CCCCOc1ccc2[nH]c(=O)cnc2c1)N(Cc1ccccc1)C1CCCCC1 [Compound 922] | 61.7% | 88.1% | 91.1% |  |  |  | 
O=C(CCCCOc1ccc2[nH]c(=O)cnc2c1)N(CCO)C1CCCCC1 [Compound 923] | 43.7% | 81.8% | 92.4% | 68% | 29% | 56.7% | 75.7%
COc1ccccc1N1CCN(C(=O)CCCCOc2ccc3[nH]c(=O)cnc3c2)CC1 [Compound 924] | 24.6% | 63.5% | 70.2% |  |  |  | 
CCOC(=O)CCCOc1ccc2c(c1)NCC(=O)N2 [Compound 925, 6-(3-ethoxycarbonylpropoxy)-2-oxo-1,2,3,4-tetrahydroquinoxaline] | 5.3% | 26.4% | 71.3% | 56.5% | 29.5% | 46.5% | 53.8%
CCOC(=O)CCCCOc1ccc2c(c1)NCC(=O)N2 [Compound 927] | 10.5% | 47.7% | 76.1% |  |  |  | 
CN(C(=O)CCCOc1ccc2c(c1)NCC(=O)N2)C1CCCCC1 [Compound 929, 6-[3-(N-cyclohexyl-N-methyl-aminocarbonyl)propoxy]-2-oxo-1,2,3,4-tetrahydroquinoxaline] | 11.2% | 53.9% | 88.5% | 49.4% | 30.4% | 41.8% | 50.8%
O=C(O)CCCOc1ccc2[nH]c(=O)cnc2c1 [Compound 938, 6-(3-carboxypropoxy)-2-oxo-1,2-dihydroquinoxaline] | 17.9% | 63.1% | 88.2% |  |  |  | 
CCCCc1nc2cc(OCCCC(=O)OCC)ccc2[nH]c1=O [Compound 948] | 62.9% | 87.9% | 92.7% |  |  |  | 
CCCCCCc1nc2cc(OCCCC(=O)OCC)ccc2[nH]c1=O [Compound 949] | 40.9% | 53.7% |  |  |  |  | 
CCOC(=O)CCCOc1ccc2[nH]c(=O)c(-c3ccccc3)nc2c1 [Compound 954] | 42.4% | 54.2% |  |  |  |  | 
Cc1nc2cc(OCCCC(=O)O)ccc2[nH]c1=O [Compound 955, 3-methyl-6-(3-carboxypropoxy)-2-oxo-1,2-dihydroquinoxaline] | 44.2% | 82.3% | 93.0% |  |  |  | 

SMILES | Inhibitory ratio ([1]; 1 μg/ml) | Inhibitory ratio ([1]; 10 μg/ml) | Inhibitory ratio ([1]; 100 μg/ml) | inhibition at 10 µM ([2]; aggregating agent ADP 2.5 μM) | inhibition at 10 µM [2, 3] | inhibition at 10 µM [2, 4] | inhibition at 10 µM [2, 5]
CCc1nc2cc(OCCCC(=O)O)ccc2[nH]c1=O [Compound 956] | 83.9% | 92.9% | 95.0% |  |  |  | 
CCCc1nc2cc(OCCCC(=O)O)ccc2[nH]c1=O [Compound 957] | 71.4% | 90.7% | 94.0% |  |  |  | 
CCCCc1nc2cc(OCCCC(=O)O)ccc2[nH]c1=O [Compound 958] | 69.9% | 91.4% | 93.7% |  |  |  | 
CCCCCCc1nc2cc(OCCCC(=O)O)ccc2[nH]c1=O [Compound 959] | 43.4% | 80.5% | 91.0% |  |  |  | 
CCCCCCCCCc1nc2cc(OCCCC(=O)O)ccc2[nH]c1=O [Compound 960] | 34.8% | 61.7% | 87.4% |  |  |  | 
O=C(O)CCCOc1ccc2[nH]c(=O)c(-c3ccccc3)nc2c1 [Compound 964] | 43.8% | 78.8% | 90.5% |  |  |  | 
Cc1nc2cc(OCCCC(=O)N(C)C3CCCCC3)ccc2[nH]c1=O [Compound 965] | 68.9% | 87.3% |  |  |  |  | 
CCN(CC)C(=O)CCCOc1ccc2[nH]c(=O)c(C)nc2c1 [Compound 967] | 38.0% | 81.0% | 92.8% |  |  |  | 
COc1ccccc1N1CCN(C(=O)CCCOc2ccc3[nH]c(=O)c(C)nc3c2)CC1 [Compound 968] | 17.1% | 60.3% |  |  |  |  | 
Cc1nc2cc(OCCCC(=O)N(Cc3ccccc3)C3CCCCC3)ccc2[nH]c1=O [Compound 969] | 72.7% | 82.5% |  |  |  |  | 
Cc1nc2cc(OCCCC(=O)N3CCC(c4ccccc4)CC3)ccc2[nH]c1=O [Compound 970] | 24.1% | 51.5% |  |  |  |  | 
CCc1nc2cc(OCCCC(=O)N(C)C3CCCCC3)ccc2[nH]c1=O [Compound 971] | 84.4% | 93.0% |  |  |  |  | 
CCc1nc2cc(OCCCC(=O)N3CCN(c4ccccc4OC)CC3)ccc2[nH]c1=O [Compound 973] | 37.6% | 42.2% |  |  |  |  | 
CCCc1nc2cc(OCCCC(=O)N(C)C3CCCCC3)ccc2[nH]c1=O [Compound 974] | 73.2% | 91.7% |  |  |  |  | 
CCCc1nc2cc(OCCCC(=O)N(CCO)C3CCCCC3)ccc2[nH]c1=O [Compound 975] | 59.5% | 88.9% | 93.5% |  |  |  | 
CCCCc1nc2cc(OCCCC(=O)N(C)C3CCCCC3)ccc2[nH]c1=O [Compound 976] | 51.1% | 84.5% |  |  |  |  | 
CCCCCCc1nc2cc(OCCCC(=O)N(CCO)C3CCCCC3)ccc2[nH]c1=O [Compound 978] | 26.2% | 40.1% |  |  |  |  | 
CN(C(=O)CCCOc1ccc2[nH]c(=O)c(-c3ccccc3)nc2c1)C1CCCCC1 [Compound 986] | 66.2% | 80.5% |  |  |  |  | 
O=C(CCCOc1ccc2[nH]c(=O)c(-c3ccccc3)nc2c1)N(CCO)C1CCCCC1 [Compound 987] | 57.4% | 83.3% | 90.2% |  |  |  | 
CCN(CC)C(=O)CCCOc1ccc2[nH]c(=O)c(-c3ccccc3)nc2c1 [Compound 988] | 46.4% | 76.9% |  |  |  |  | 
